Reference: patent US20240002445A1, “TYROSYL-LOCK PEPTIDES” (The United States of America,as represented by the …, priority 2020, published 2024)
“Also recorded” adds a separate entry of the source. One block for each molecule: values may come before it. Bridge positions count the residues as written; N and C are the ends. Square brackets hold non-standard residues; d marks the D form. Ends that are not written are not given here. Peptide text beside a SMILES is read from it. pGlu = O=C1CC[C@@H](C(=O)O)N1

Tests used:
[1] = tested on: T1, recifin A (native, isolated from the marine sponge Axinella sp.)
T1 sequence: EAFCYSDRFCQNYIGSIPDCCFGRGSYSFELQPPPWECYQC

Δ147TDP1 = biological target: T2, Δ147TDP1 (Homo sapiens, UniProt Q9NUW8); experiment: FRET-based TDP1 enzymatic activity inhibition assay, N-terminally truncated TDP1; type: biochemical
T2 construct: a truncated catalytic domain of TDP1 lacking the N-terminal regulatory domain (Δ1-147)
Method: (§1) FRET-based TDP1 enzymatic activity inhibition assays were carried out as previously described (Bermingham, et al., SLAS Discov., 2472555217717200 (2017)). Briefly, for Michaelis-Menten analysis, an eight-point FRET substrate concentration response was used (from 0.01-3 μM substrate) in the presence of 0, 0.2, 0.5, 1, and 2 μM recifin A. Quadruplicate reactions were setup in which a 1.25× concentration of either full-length TDP1 or Δ1-147TDP1 was diluted to 1× by the addition of a […] solution of substrate and recifin A to reach a final concentration of 0.5 nM TDP1 (full length or truncated) and the indicated substrate and recifin A concentration in 1× Phosphate Buffered Saline (PBS) pH 7.4, 80 mM potassium chloride, 1 mM TCEP, referred to as “1× TDP1 buffer.” After dilution these reactions were transferred to a black small volume 384-well plate (Greiner Bio-One, Monroe, NC). Fluorescence measurements (excitation: 520 nm, emission: 550 nm) were taken at 30 sec intervals for 1 h using a i3x SpectraMax plate reader (Molecular Devices, Sunnyvale, CA). Reaction progression curves for each condition were examined for linearity over the time course and the reaction rate for each condition was determined by linear regression using GraphPad Prism software (version 8.3.1, San Diego, CA). Reaction rates were replotted in terms of substrate concentration, and kinetic parameters for each recifin A treatment concentration were calculated by non-linear regression (GraphPad Prism) according to the following equation: […]
(§2) For IC50 determinations, a 12-point concentration response curve was prepared over a recifin A concentration range of 0-15 μM. This was accomplished by diluting a 5X stock solution of recifin A and TDP1 FRET substrate into a stock solution of 1.25× TDP1 buffer containing 0.625 nM full-length TDP1 or Δ147TDP1, bringing the final concentration to 1× TDP1 buffer, 0.5 nM enzyme (or a no enzyme control), 1 μM FRET substrate, and 0-15 μM recifin A. Reactions were setup in triplicate using the same plates and plate reader described above for the kinetic measurements. Reaction wells were read at 0 (T0) and 15 (T15) min after initiation. The T15 data was background corrected by subtracting T0 fluorescence measurements. Corrected data was normalized to a control with no enzyme present (0% activity) and a vehicle control (100% activity). Recifin A concentrations were converted to logio-values and normalized data were fitted to the following equation by nonlinear regression (least squares fit with a variable slope) and an IC50 value was calculated using GraphPad Prism software: […]

[2] = biological target: T3, human TDP1 complemented DT40 knockout whole cell extracts (hTDP1 WCE) (Homo sapiens, UniProt Q9NUW8); experiment: TDP1 inhibition assay with radiolabeled oligonucleotide in whole cell extract; type: biochemical; details: 2 μg/mL hTDP1 WCE from TDP1-/- DT40 cells complemented with human TDP1
T3 construct: expressed in transfected cells; host or cells: TDP1-/- DT40 (chicken B-lymphocyte) cells complemented with human TDP1; whole cell extract
Method: (§3) The reactions were carried out in a final volume of 10 μL in 1×LMP 1 reaction buffer (50 mM Tris-HCl, pH 7.5, 80 mM KCl, 2 mM EDTA, 1 mM DTT, 40 μg/mL BSA, 0.01% TWEEN 20) at room temperature for 15 minutes and terminated by adding 10 μ−L of 2×stop buffer (99.5% formamide, 10 mM EDTA, 0.01% methylene blue, 0.01% bromophenol blue).

FL-TDP1 = biological target: T4, FL-TDP1 (Homo sapiens, UniProt Q9NUW8); experiment: FL-TDP1 FRET assay without TCEP (recifin A and analogues); type: biochemical; details: for IC50: IC50 μM (FL-TDP1 inhibitory activity), 1 nM FL-TDP1, 0.25 μM substrate, T=15 min, 1XPBS pH 7.4, 80 mM KCl, -TCEP, high-test concentration 20 μM; for TDP1 inhibitory activity (FRET assay): TCEP omitted
T4 construct: either full-length TDP1 or Δ1-147TDP1 was diluted to 1×
Method: For these FRET assays, TCEP was omitted from the reaction buffer. Peptides were evaluated for FL-TDP1 inhibitory activity using an 8-pt, 10^0.5 dilution series at a high-test concentration of 20 μM. RXN conditions: 1 nM FL-TDP1, 0.25 μM substrate, T=15 min.; rxn buffer (1XPBS pH 7.4, 80 mM KCl) (-TCEP). See FIGS. 21A and 21B and FIG. 22.

TDP1 = TDP1 (Homo sapiens, UniProt Q9NUW8); experiment: High-throughput biochemical assay for inhibition of TDP1 enzymatic activity (bioassay-guided fractionation); details: comparison among peptide constituents of fractions A-D of Axinella sp. aqueous extract
Method: The sponge Axinella sp., (Voucher #ID 0CDN7410, NSC #C020686) was harvested at a depth of 40 m at the Thunderbolt reef, south-southwest of Cape Recife Nature Reserve, Port Elizabeth, South Africa. A voucher specimen for this collection is maintained at the Smithsonian Institution (Suitland, MD). Aqueous extracts of Axinella sp. were provided by the Natural Products Branch of the National Cancer Institute and were prepared as previously reported (McCloud, Molecules, 15(7): 4526-63 (2010)). The dried extract was reconstituted in water at a concentration of 10 mg/mL and then subjected to vacuum-assisted chromatography using Bakerbond C4 wide-pore media (Mallinckrodt Baker, Inc., Phillipsburg, NJ). Compounds were eluted using a stepwise methanol gradient of five column volumes (CV) each of 100% water, 40% methanol, 60% methanol and 100% methanol, and the resulting fractions were evaporated under vacuum and then lyophilized to dryness. A high-throughput biochemical assay for inhibition of TDP1 enzymatic activity was utilized to track fraction activity (Bermingham, et al., SLAS Discov., 2472555217717200 (2017)). […]

carboxypeptidase Y = carboxypeptidase Y (Saccharomyces cerevisiae, UniProt P00729); details: native form, 1:18 enzyme to target protein by mass, 20 minutes at room temperature
chymotrypsin = chymotrypsin (Bos taurus, UniProt P00766); details: native form, 1:20 enzyme to target protein by mass, overnight at room temperature
trypsin = trypsin (Bos taurus, UniProt P00760); details: native form, 1:20 enzyme to target protein by mass, overnight at 37° C.
[3] = biological target: pyroglutamate aminopeptidase (Pyrococcus furiosus, UniProt O73944)
full-length TDP1 [4] = biological target: T5, full-length TDP1 (Homo sapiens, UniProt Q9NUW8); experiment: biochemical
Method: as §3

full-length TDP1 [5] = biological target: T5, full-length TDP1; experiment: FRET-based TDP1 enzymatic activity inhibition assay, full-length TDP1 (1x TDP1 buffer with TCEP); type: biochemical; set-up: either full-length TDP1 or Δ1-147TDP1 was diluted to 1×; details: for effect on Vmax of full-length TDP1 / effect on Km of full-length TDP1: steady-state analysis; for effect on Km of full-length TDP1: sub-micromolar concentrations of recifin A
Method: as §1, §2

[6] = Stability of recifin A to handling, solvents and RP-HPLC
[7] = biological target: full-length recombinant human Tyrosyl-DNA phosphodiesterase 1 (TDP1) (human) (UniProt Q9NUW8); experiment: cell-based or functional assay
[8] = biological target: N-terminal truncated TDP1 (Δ147TDP1) (UniProt Q9NUW8); experiment: cell-based or functional assay
[9] = full-length TDP1, Michaelis-Menten analysis, 0-2 μM recifin A

T5 sequence (Q9NUW8 whole entry): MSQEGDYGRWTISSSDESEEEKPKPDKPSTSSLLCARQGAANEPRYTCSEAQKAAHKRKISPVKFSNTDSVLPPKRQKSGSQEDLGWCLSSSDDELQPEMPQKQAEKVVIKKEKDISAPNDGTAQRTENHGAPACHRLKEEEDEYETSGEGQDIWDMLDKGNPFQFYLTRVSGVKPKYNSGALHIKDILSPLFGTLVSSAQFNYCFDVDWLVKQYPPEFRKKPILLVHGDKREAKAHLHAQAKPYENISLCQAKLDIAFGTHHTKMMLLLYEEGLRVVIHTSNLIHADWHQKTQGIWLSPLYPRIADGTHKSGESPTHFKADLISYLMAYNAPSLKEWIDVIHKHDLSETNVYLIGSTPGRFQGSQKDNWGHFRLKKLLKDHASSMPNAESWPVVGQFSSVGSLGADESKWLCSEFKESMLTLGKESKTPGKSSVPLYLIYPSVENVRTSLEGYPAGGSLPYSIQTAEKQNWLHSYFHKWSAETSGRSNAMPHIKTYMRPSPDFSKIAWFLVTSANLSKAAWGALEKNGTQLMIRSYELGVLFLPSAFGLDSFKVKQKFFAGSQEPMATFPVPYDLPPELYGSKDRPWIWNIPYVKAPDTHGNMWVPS
Sequence of full-length recombinant human Tyrosyl-DNA phosphodiesterase 1 (TDP1) (human) (Q9NUW8 whole entry, the tested form may be a part): as the sequence (Q9NUW8 whole entry) above
T4 sequence (Q9NUW8 whole entry): as above
T2 sequence (Q9NUW8 148-608, stated change not applied): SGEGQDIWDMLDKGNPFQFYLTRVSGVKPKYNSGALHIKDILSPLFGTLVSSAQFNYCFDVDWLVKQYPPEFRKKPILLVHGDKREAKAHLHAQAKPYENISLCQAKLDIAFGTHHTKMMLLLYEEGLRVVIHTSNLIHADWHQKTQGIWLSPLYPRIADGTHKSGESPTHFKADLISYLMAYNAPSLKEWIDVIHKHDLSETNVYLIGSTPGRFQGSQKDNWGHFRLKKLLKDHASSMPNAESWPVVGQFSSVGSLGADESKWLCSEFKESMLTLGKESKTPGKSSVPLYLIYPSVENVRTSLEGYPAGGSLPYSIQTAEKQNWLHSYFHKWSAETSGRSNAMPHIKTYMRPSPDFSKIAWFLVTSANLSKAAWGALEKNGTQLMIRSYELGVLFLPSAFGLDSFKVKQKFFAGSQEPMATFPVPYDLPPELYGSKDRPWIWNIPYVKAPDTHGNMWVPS
Sequence of pyroglutamate aminopeptidase (O73944 whole entry): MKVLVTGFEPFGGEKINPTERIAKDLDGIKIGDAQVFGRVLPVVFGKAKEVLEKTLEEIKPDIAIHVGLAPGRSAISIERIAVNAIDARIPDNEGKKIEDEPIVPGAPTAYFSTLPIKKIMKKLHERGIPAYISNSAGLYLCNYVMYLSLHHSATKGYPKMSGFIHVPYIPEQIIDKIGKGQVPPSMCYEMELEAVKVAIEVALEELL
T3 sequence (Q9NUW8 whole entry): as the sequence (Q9NUW8 whole entry) above
Sequence of TDP1 (Q9NUW8 whole entry): as above
Sequence of N-terminal truncated TDP1 (Δ147TDP1) (Q9NUW8 148-608, stated change not applied): as the sequence (Q9NUW8 148-608, stated change not applied) above
Sequence of trypsin (P00760 24-246): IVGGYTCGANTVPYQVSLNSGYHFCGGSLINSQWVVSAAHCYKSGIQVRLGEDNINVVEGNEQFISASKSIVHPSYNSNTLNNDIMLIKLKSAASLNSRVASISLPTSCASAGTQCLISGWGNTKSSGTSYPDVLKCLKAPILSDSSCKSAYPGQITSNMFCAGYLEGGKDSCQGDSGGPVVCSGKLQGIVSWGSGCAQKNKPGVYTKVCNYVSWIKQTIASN
Sequence of carboxypeptidase Y (P00729 112-532, species assumed): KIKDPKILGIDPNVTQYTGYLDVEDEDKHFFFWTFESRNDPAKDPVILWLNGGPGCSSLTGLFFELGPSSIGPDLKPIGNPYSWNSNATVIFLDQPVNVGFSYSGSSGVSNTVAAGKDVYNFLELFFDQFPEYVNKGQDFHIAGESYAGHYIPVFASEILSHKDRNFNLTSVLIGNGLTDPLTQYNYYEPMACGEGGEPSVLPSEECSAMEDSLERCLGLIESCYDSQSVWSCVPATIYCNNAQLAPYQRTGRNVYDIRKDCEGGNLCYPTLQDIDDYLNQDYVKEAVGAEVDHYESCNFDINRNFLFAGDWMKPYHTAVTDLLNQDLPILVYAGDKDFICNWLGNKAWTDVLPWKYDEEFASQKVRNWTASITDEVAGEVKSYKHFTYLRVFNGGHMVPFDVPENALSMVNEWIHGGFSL

Molecule: N-terminal truncated TDP1 (Δ147TDP1)
Km and Vmax of the Δ147TDP1 FRET assay [1]: recifin A had overlapping 95% confidence intervals for both Km and Vmax with the untreated controls, indicating that recifin A does not affect the enzymatic activity of truncated TDP1

Molecule: [pGlu]EAFCYSDRFCQNYIGSIPDCCFGRGSYSFELQPPPWECYQC (disulfide 5-21, 11-39, 22-42) [recifin A]
effect on enzymatic activity of truncated TDP1 (Δ147TDP1) (Δ147TDP1; FRET assay, TDP1 lacking N-terminal regulatory domain (Δ1-147)): does not affect the enzymatic activity; also recorded: not affecting the activity | inhibition at 1.5 µM (Δ147TDP1; at the highest concentration (1500 nM), read-out: maximal inhibition of Δ147TDP1): ~20% | effect on Km of Δ147TDP1 (Δ147TDP1; Δ147TDP1 FRET assay): did not affect | effect on Vmax of Δ147TDP1 (Δ147TDP1; Δ147TDP1 FRET assay): did not affect | inhibition of TDP1 processing of the radiolabeled oligonucleotide in whole-cell extract [2]: retained the ability to inhibit | IC50 (FL-TDP1): 1.63 µM | TDP1 inhibitory activity of Axinella sp. peptides/fractions (TDP1): most active | digestion with carboxypeptidase Y (carboxypeptidase Y): resistant | digestion with chymotrypsin (chymotrypsin): resistant | digestion with trypsin (trypsin): resistant | digestion with pyroglutamate aminopeptidase ([3]; native form, 2 microgram peptide to 0.2 milliunits enzyme, PBS pH 7.4, 24 hour at 37 C): resistant | digestion with pyroglutamate aminopeptidase: N-terminal pyroglutamate residue ([3]; same conditions in phosphate buffer containing 10 mM DTT): fully removed | IC50 (full-length TDP1 [4]): 2400 nM | IC50 (full-length TDP1 [5]): 190 nM | increase in Km for the substrate (full-length TDP1 [5]; [9]): approximately 6 fold | increase in observed Vmax (full-length TDP1 [5]; [9]): approximately 1.6 fold | effect on Vmax of full-length TDP1 (full-length TDP1 [5]): modest increase | effect on Km of full-length TDP1 (full-length TDP1 [5]): increased | effect on Km of full-length TDP1 (full-length TDP1 [5]; listed as Recifin A): in-creased | effect on Vmax of full-length TDP1 (full-length TDP1 [5]; listed as Recifin A): in-creased | activity after processing ([6]; DTP extract preparation, drying under nitrogen gas at room temperature, freezing at -20° C., -80° C. and on dry ice, lyophilization, freezing and thawing): still active | stability during RP-HPLC procedures ([6]; room temperature and 40° C., with and without 0.05% v/v TFA (pH approx. 2)): stable | stability in solvents and buffers ([6]; water, PBS pH 7.4, Tris HCl pH 8.0, methanol, acetonitrile, DMSO): stable

Molecule: [pGlu]EAFCYSDRFCQNYIGSIPDCCFGRGSYSFELQPPPWECYQC-OH (disulfide 5-21, 11-39, 22-42) [Synthetic, Recifin]
TDP1 inhibitory activity (FRET assay) (FL-TDP1): have TDP1 inhibitory activity | IC50 (FL-TDP1): 0.5 µM

Molecule: full-length recombinant human Tyrosyl-DNA phosphodiesterase 1 (TDP1)
effect on the observed Vmax, FRET steady-state kinetics [1]: approximately 1.6-fold higher | recifin A-dependent increase in the Km for the substrate, FRET steady-state kinetics [1]: approximately 6-fold higher

Molecule: CC[C@H](C)[C@@H]1NC(=O)[C@H](Cc2ccc(O)cc2)NC(=O)[C@H](CC(N)=O)NC(=O)[C@H](CCC(N)=O)NC(=O)[C@@H]2CSSC[C@@H]3NC(=O)[C@H](CCC(=O)O)NC(=O)[C@H](Cc4c[nH]c5ccccc45)NC(=O)[C@@H]4CCCN4C(=O)[C@@H]4CCCN4C(=O)[C@@H]4CCCN4C(=O)[C@H](CCC(N)=O)NC(=O)[C@H](CC(C)C)NC(=O)[C@H](CCC(=O)O)NC(=O)[C@H](Cc4ccccc4)NC(=O)[C@H](CO)NC(=O)[C@H](Cc4ccc(O)cc4)NC(=O)[C@H](CO)NC(=O)CNC(=O)[C@H](CCCNC(=N)N)NC(=O)CNC(=O)[C@H](Cc4ccccc4)NC(=O)[C@H](CSSC[C@@H](C(=O)O)NC(=O)[C@H](CCC(N)=O)NC(=O)[C@H](Cc4ccc(O)cc4)NC3=O)NC(=O)[C@H](CSSC[C@H](NC(=O)[C@H](Cc3ccccc3)NC(=O)[C@H](C)N)C(=O)N[C@@H](Cc3ccc(O)cc3)C(=O)N[C@@H](CO)C(=O)N[C@@H](CC(=O)O)C(=O)N[C@@H](CCCNC(=N)N)C(=O)N[C@@H](Cc3ccccc3)C(=O)N2)NC(=O)[C@H](CC(=O)O)NC(=O)[C@@H]2CCCN2C(=O)[C@H]([C@@H](C)CC)NC(=O)[C@H](CO)NC(=O)CNC1=O [Truncated, Recifin (3-42)] (H-AFCYSDRFCQNYIGSIPDCCFGRGSYSFELQPPPWECYQC-OH; disulfide 3-19, 9-37, 20-40)
TDP1 inhibitory activity (FRET assay) (FL-TDP1): no TDP1 inhibitory activity | IC50 (FL-TDP1): > 10 µM

Next, values leading:

IC50 µM, FL-TDP1 FRET inhibition assay without TCEP [7]: > 10 µM
Molecule: [Ala10] recifin (peptide)

maximal inhibition of enzymatic activity, FRET assay [8]: 20% | IC50 µM, FL-TDP1 FRET inhibition assay without TCEP [7]: 1.63 µM | IC50, inhibition of TDP1 cleavage of a 5'-radiolabeled oligonucleotide DNA substrate containing a 3'-phosphotyrosyl residue (gel assay) [7]: 2400 nM | apparent IC50, FRET-based TDP1 enzymatic activity inhibition assay [7]: 190 nM
Molecule: recifin A (native, isolated from the marine sponge Axinella sp.) (peptide)

IC50 µM, FL-TDP1 FRET inhibition assay without TCEP [7]: > 10 µM
Molecule: Recifin (3-42) (peptide)

IC50 µM, FL-TDP1 FRET inhibition assay without TCEP [7]: 0.5 µM
Molecule: synthetic recifin A (peptide)

IC50 µM, FL-TDP1 FRET inhibition assay without TCEP [7]: 0.69 µM
Molecule: [Pro1] recifin (peptide)
